Patent US8592455B2 (priority 2008, dated 2013)
Read-outs that look alike come from different tables or passages of the source.

Key:
Pim1 kinase [1] = target: T1, Pim1 kinase (Homo sapiens (Human), UniProt P11309); test: biochemical
Pim1 kinase [2] = target: T1, Pim1 kinase; conditions: read-out: Pim1 IC50
Pim3 kinase = Pim3 kinase (Homo sapiens (Human), UniProt Q86V86); conditions: read-out: Pim3 IC50

T1 sequence (P11309 whole entry): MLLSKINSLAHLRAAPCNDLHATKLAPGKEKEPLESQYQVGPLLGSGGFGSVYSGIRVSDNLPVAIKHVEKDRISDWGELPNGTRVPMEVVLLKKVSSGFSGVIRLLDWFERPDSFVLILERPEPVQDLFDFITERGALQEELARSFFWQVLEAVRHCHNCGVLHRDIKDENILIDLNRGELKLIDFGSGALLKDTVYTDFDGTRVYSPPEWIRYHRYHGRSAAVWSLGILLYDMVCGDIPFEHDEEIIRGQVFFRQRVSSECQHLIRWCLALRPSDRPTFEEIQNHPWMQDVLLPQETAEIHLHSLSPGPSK

| SMILES | IC50 (Pim1 kinase [1]) [nM] | IC50 (Pim1 kinase [2]) [nM] | IC50 (Pim3 kinase) [nM] |
| --- | --- | --- | --- |
| Nc1ccc(-c2c(F)cccc2F)nc1C(=O)Nc1cnccc1[C@@H]1CC[C@H](O)[C@H](N)C1 (stereo in doubt) [Example 102, 3-amino-N-(4-(3-amino-4-hydroxycyclohexyl)pyridin-3-yl)-6-(2,6-difluorophenyl)picolinamide] | 1 |  |  |
| Cc1ccc(F)c(-c2cccc(C(=O)Nc3cnccc3[C@H]3C[C@@H](N)[C@@H](O)[C@@H](C)C3)n2)c1 [Example 74, N-(4-((1R,3R,4S,5S)-3-amino-4-hydroxy-5-methylcyclohexyl)pyridin-3-yl)-6-(2-fluoro-5-methylphenyl)picolinamide] |  | 1 | 4 |
| C[C@H]1C[C@@H](c2ccncc2NC(=O)c2cccc(-c3c(F)cccc3F)n2)C[C@@H](N)[C@H]1O [Example 76, N-(4-((1R,3R,4S,5S)-3-amino-4-hydroxy-5-methylcyclohexyl)pyridin-3-yl)-6-(2,6-difluorophenyl)picolinamide] |  | 1 | 2 |
| N[C@H]1CCC[C@@H](c2ccncc2NC(=O)c2ccc(F)c(-c3cccc(F)c3F)n2)C1 [Example 79, N-(4-((1R,3S)-3-aminocyclohexyl)pyridin-3-yl)-6-(2,3-difluorophenyl)-5-fluoropicolinamide] |  | 2 | 3 |
| N[C@H]1CCC[C@@H](c2ccncc2NC(=O)c2nc(-c3c(F)cccc3F)ccc2F)C1 [Example 80, N-(4-((1R,3S)-3-aminocyclohexyl)pyridin-3-yl)-6-(2,6-difluorophenyl)-3-fluoropicolinamide] |  | 6 | 7 |
| N[C@H]1CCC[C@@H](c2ccncc2NC(=O)c2ccc(F)c(-c3ccc(F)cc3F)n2)C1 [Example 82, N-(4-((1R,3S)-3-aminocyclohexyl)pyridin-3-yl)-6-(2,4-difluorophenyl)-5-fluoropicolinamide] |  | 3 | 9 |
| N[C@@H]1C[C@H](c2ccncc2NC(=O)c2cccc(-c3ccccc3F)n2)CC[C@@H]1O [Example 83, N-(4-((1R,3R,4S)-3-amino-4-hydroxycyclohexyl)pyridin-3-yl)-6-(2-fluorophenyl)picolinamide] |  | 4 | 5 |
| Nc1ccc(-c2c(F)cccc2F)nc1C(=O)Nc1cnccc1C1=CC(N)C(O)CC1 (stereo not drawn) [Example 92, 3-amino-N-(4-(trans)-3-amino-4-hydroxycyclohex-1-enyl)pyridin-3-yl)-6-(2,6-difluorophenyl)picolinamide] |  | 2 | 5 |
| Nc1ccc(-c2c(F)cccc2F)nc1C(=O)Nc1cnccc1C1=C[C@@H](N)[C@@H](O)CC1 [Example 93] |  | 1 | 5 |
| C[C@@H]1CN(c2ccncc2NC(=O)c2nc(-c3c(F)cccc3F)ccc2N)C[C@@H](N)[C@H]1O [Example 103, 3-amino-N-(4-((3R,4S,5R)-3-amino-4-hydroxy-5-methylpiperidin-1-yl)pyridin-3-yl)-6-(2,6-difluorophenyl)picolinamide] |  | 2 | 4 |
| Cc1ccc(F)c(-c2cccc(C(=O)Nc3cnccc3[C@H]3C[C@@H](N)C[C@@H](C(F)(F)F)C3)n2)c1 [Example 108, N-(4-((1R,3R,5S)-3-amino-5-(trifluoromethyl)cyclohexyl)pyridin-3-yl)-6-(2-fluoro-5-methylphenyl)picolinamide] |  | 1 | 3 |
| N[C@@H]1C[C@H](c2ccncc2NC(=O)c2ccc(F)c(C3CCCCC3)n2)C[C@H](C(F)(F)F)C1 [Example 111, N-(4-((1R,3R,5S)-3-amino-5-(trifluoromethyl)cyclohexyl)pyridin-3-yl)-6-cyclohexyl-5-fluoropicolinamide] |  | 2 | 11 |
| C[C@H]1CN(c2ccncc2NC(=O)c2ccc(F)c(-c3ccccc3F)n2)C[C@@H](O)[C@@H]1O [Example 114, N-(4-((3R,4R,5S)-3,4-dihydroxy-5-methylpiperidin-1-yl)pyridin-3-yl)-5-fluoro-6-(2-fluorophenyl)picolinamide] |  | 1 | 1 |
| C[C@H]1CN(c2ccncc2NC(=O)c2cccc(-c3c(F)cccc3F)n2)C[C@@H](O)[C@@H]1O [Example 115, 6-(2,6-difluorophenyl)-N-(4-((3R,4R,5S)-3,4-dihydroxy-5-methylpiperidin-1-yl)pyridin-3-yl)picolinamide] |  | 1 | 1 |
| C[C@H]1CN(c2ccncc2NC(=O)c2ccc(F)c(-c3cccnc3)n2)C[C@@H](N)[C@@H]1O [Example 118, N-(4-((3R,4R,5S)-3-amino-4-hydroxy-5-methylpiperidin-1-yl)pyridin-3-yl)-3-fluoro-2,3′-bipyridine-6-carboxamide] |  | 4 | 9 |
| C[C@H]1CN(c2ccncc2NC(=O)c2ccc(F)c(-c3ccncc3F)n2)C[C@@H](N)[C@@H]1O [Example 119, N-(4-((3R,4R,5S)-3-amino-4-hydroxy-5-methylpiperidin-1-yl)pyridin-3-yl)-3,3′-difluoro-2,4′-bipyridine-6-carboxamide] |  | 1 | 2 |
| C[C@H]1CN(c2ccncc2NC(=O)c2ccc(F)c(-c3ccncc3)n2)C[C@@H](N)[C@@H]1O [Example 120, N-(4-((3R,4R,5S)-3-amino-4-hydroxy-5-methylpiperidin-1-yl)pyridin-3-yl)-3-fluoro-2,4′-bipyridine-6-carboxamide] |  | 3 | 7 |
| COc1cc(F)c(-c2nc(C(=O)Nc3cnccc3[C@H]3C[C@@H](N)CC(C)(C)C3)ccc2F)c(F)c1 [Example 123, N-(4-((1R,5R)-5-amino-3,3-dimethylcyclohexyl)pyridin-3-yl)-6-(2,6-difluoro-4-methoxyphenyl)-5-fluoropicolinamide] |  | 1 | 2 |
| N[C@H]1CCC[C@@H](c2ccncc2NC(=O)c2ccc(F)c(-c3c(F)ccc(O)c3F)n2)C1 [Example 124, N-(4-((1R,3S)-3-aminocyclohexyl)pyridin-3-yl)-6-(2,6-difluoro-3-hydroxyphenyl)-5-fluoropicolinamide] |  | 1 | 1 |
| C[C@H]1C[C@@H](c2ccncc2NC(=O)c2ccc(F)c(-c3cccc(C(F)(F)F)c3F)n2)C[C@@H](N)[C@@H]1O [Example 127, N-(4-((1R,3R,4R,5S)-3-amino-4-hydroxy-5-methylcyclohexyl)pyridin-3-yl)-5-fluoro-6-(2-fluoro-3-(trifluoromethyl)phenyl)picolinamide] |  | 11 | 27 |
| C[C@@H]1C[C@H](N)C[C@H](c2ccncc2NC(=O)c2ccc(F)c(-c3c(F)ccc(F)c3F)n2)C1 [Example 129, N-(4-((1R,3S,5S)-3-amino-5-methylcyclohexyl)pyridin-3-yl)-5-fluoro-6-(2,3,6-trifluorophenyl)picolinamide] |  | 1 | 2 |
| Nc1cc(F)c(-c2ccncc2F)nc1C(=O)Nc1cnccc1[C@@H]1CCC[C@H](N)C1 [Example 136, 5-amino-N-(4-((1R,3S)-3-aminocyclohexyl)pyridin-3-yl)-3,3′-difluoro-2,4′-bipyridine-6-carboxamide] |  | 2 | 9 |
| CC1CC(c2ccncc2NC(=O)c2ccc(F)c(-c3c(F)cccc3F)n2)=CC(O)C1 (stereo not drawn) [Example 137, 6-(2,6-difluorophenyl)-5-fluoro-N-(4-(3-hydroxy-5-methylcyclohex-1-enyl)pyridin-3-yl)picolinamide] |  | 1 | 7 |
